The assay concerns the target T1, SdLPMO10A (Saccharophagus degradans, UniProt Q21N34).
T1 construct: gene cbpA; AA10 catalytic domain plus CBM2; native signal peptide (24 residues) replaced by pelB, pET-26b(+), E. coli BL21(DE3) periplasm, Ni-NTA purified; N-terminal His25; Cu2+-saturated
The assay can be described thus: MALDI-TOF MS of oxidized chitin oligosaccharides. The assay is classed as biochemical. The following applies: electron donor, 1 mM; 10 µM Cu2+-saturated enzyme; alpha-chitin; 20 mM Tris-HCl pH 8.0, 30 °C, 48 h.

T1 sequence (Q21N34 entry or part of it): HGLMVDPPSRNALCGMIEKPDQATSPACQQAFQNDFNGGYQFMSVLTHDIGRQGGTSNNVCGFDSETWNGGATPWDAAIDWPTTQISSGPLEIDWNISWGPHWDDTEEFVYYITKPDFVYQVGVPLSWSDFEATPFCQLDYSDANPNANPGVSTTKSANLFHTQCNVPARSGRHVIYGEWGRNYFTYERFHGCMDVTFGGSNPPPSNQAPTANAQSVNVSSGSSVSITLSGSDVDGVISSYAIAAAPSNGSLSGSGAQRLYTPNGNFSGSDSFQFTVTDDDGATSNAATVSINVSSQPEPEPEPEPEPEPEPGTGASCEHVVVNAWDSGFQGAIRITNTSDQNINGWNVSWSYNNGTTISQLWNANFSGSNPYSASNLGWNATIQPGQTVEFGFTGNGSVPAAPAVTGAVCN

On to `O=C1O[C@H]([C@@H](O)CO)C(O)=C1O` [ascorbic acid], for which the “MALDI-TOF MS of oxidized chitin oligosaccharides” value is given as “lacking SdLPMO10A or ascorbic acid, no discernible quantity of oxidized chitin oligosaccharides was generated”.

These data come from PMC12385910, “The Functional Characterization of an AA10 Lytic Polysaccharide Monooxygenase from Saccharophagus degradans 2-40^T for Enhanced Chitin Biodegradation” (Foods, 2025).
